Data as given in patent publication US20070128217A1 (priority 2003, published 2007).

Experiments:
[1] = tested on: recombinant human anti-SARS-CoV antibody 03-018; format: binding; set-up: Binding of antibody 03-018 to linear peptides of the N protein of SARS-CoV Urbani / Binding of antibody 03-018 to looped/cyclic peptides of the N protein of SARS-CoV Urbani: unit not given here
[2] = tested on: antibodies in sera from SARS patients (sera 1a, 1b, 2, 6, 37, 62, London, SARS-yellow, SARS-green); format: binding, human; set-up: Binding of serum 6 to linear peptides of protein X1 of SARS-CoV Urbani / Binding of serum 37 to linear peptides of protein X1 of SARS-CoV Urbani / Binding of serum 6 to looped/cyclic peptide (PEPSCAN-ELISA) / Binding of serum 37 to looped/cyclic peptide (PEPSCAN-ELISA) / Binding of serum 37 to looped/cyclic peptides of protein X1 of SARS-CoV Urbani / Binding of serum 6 to linear peptides of protein X2 / Binding of serum 37 to linear peptides of protein X2 / Binding of serum 37 to looped/cyclic peptides of protein X2 of SARS-CoV Urbani / Binding of serum 6 to linear peptides of protein M of SARS-CoV Urbani / Binding of serum 37 to linear peptides of protein M of SARS-CoV Urbani / Binding of serum 6 to looped/cyclic peptides of protein M of SARS-CoV Urbani / Binding of serum 37 to looped/cyclic peptides of protein M of SARS-CoV Urbani / Binding of serum 6 to linear peptides of protein X3 of SARS-CoV Urbani / Binding of serum 37 to linear peptides of protein X3 of SARS-CoV Urbani / Binding of serum 37 to looped/cyclic peptides of protein X3 of SARS-CoV Urbani / Binding of serum 6 to linear peptides of protein X4 of SARS-CoV Urbani / Binding of serum 37 to linear peptides of protein X4 of SARS-CoV Urbani / Binding of serum 37 to looped/cyclic peptides of protein X4 of SARS-CoV Urbani / Binding of serum 6 to linear peptides of protein X5 of SARS-CoV Urbani / Binding of serum 37 to linear peptides of protein X5 of SARS-CoV Urbani / Binding of serum 37 to looped/cyclic peptides of protein X5 of SARS-CoV Urbani / Binding of serum 6 to linear peptides of protein N of SARS-CoV Urbani / Binding of serum 37 to linear peptides of protein N of SARS-CoV Urbani / Binding of serum 6 to linear peptide (PEPSCAN-ELISA) / Binding of serum 1a to looped/cyclic peptides of protein N of SARS-CoV Urbani / Binding of serum 1b to looped/cyclic peptides of protein N of SARS-CoV Urbani / Binding of serum 2 to looped/cyclic peptides of protein N of SARS-CoV Urbani / Binding of serum 6 to looped/cyclic peptides of protein N of SARS-CoV Urbani / Binding of serum 37 to looped/cyclic peptides of protein N of SARS-CoV Urbani / Binding of serum 62 to looped/cyclic peptides of protein N of SARS-CoV Urbani / Binding of serum London to looped/cyclic peptides of protein N of SARS-CoV Urbani / Binding of serum SARS-green to looped/cyclic peptides of protein N of SARS-CoV Urbani: unit not given here
[3] = tested on: rabbit serum obtained by immunizing a rabbit with the SARS-CoV strain Frankfurt 1; format: binding; set-up: Binding of a rabbit serum to linear peptides / Binding of a rabbit serum to looped peptides / Rabbit serum linear peptides / Rabbit serum looped peptides / Binding of a rabbit serum to linear peptides of protein N of SARS-CoV Urbani (Rabbit serum linear peptides) / Binding of a rabbit serum to looped/cyclic peptides of protein N of SARS-CoV Urbani (Rabbit serum looped peptides): unit not given here
[4] = tested on: control sera (pooled serum of ten healthy LUMC hospital workers; commercial negative donor pooled serum from the Dutch bloodbank); format: binding, human; set-up: Binding of Control serum LUMC to linear peptides / Binding of Control serum Blood-bank to linear peptides / Binding of Control serum LUMC to looped peptides / Binding of Control Serum Blood-Bank to Looped peptides / Binding of Control serum LUMC to linear peptides of the protein M of SARS-CoV Urbani / Binding of Control serum Blood-bank to linear peptides of the protein M of SARS-CoV Urbani / Binding of Control serum LUMC to looped peptides of the protein M of SARS-CoV Urbani / Binding of Control Serum Blood-Bank to Looped peptides of the protein M of SARS-CoV Urbani: unit not given here

| Sequence | Binding of antibody 03-018 to linear peptides of the N protein of SARS-CoV Urbani [1] | Binding of antibody 03-018 to looped/cyclic peptides of the N protein of SARS-CoV Urbani [1] | Binding of serum 1a to linear peptides of protein N of SARS-CoV Urbani [2] | Binding of serum 1a to looped/cyclic peptides of protein N of SARS-CoV Urbani [2] | Binding of serum 1b to linear peptides of protein N of SARS-CoV Urbani [2] | Binding of serum 1b to looped/cyclic peptides of protein N of SARS-CoV Urbani [2] | Binding of serum 2 to linear peptides of protein N of SARS-CoV Urbani [2] | Binding of serum 2 to looped/cyclic peptides of protein N of SARS-CoV Urbani [2] | Binding of serum 6 to linear peptides of protein N of SARS-CoV Urbani [2] | Binding of serum 6 to looped/cyclic peptides of protein N of SARS-CoV Urbani [2] | Binding of serum 37 to linear peptides of protein N of SARS-CoV Urbani [2] | Binding of serum 37 to looped/cyclic peptides of protein N of SARS-CoV Urbani [2] | Binding of serum 62 to linear peptides of protein N of SARS-CoV Urbani [2] | Binding of serum 62 to looped/cyclic peptides of protein N of SARS-CoV Urbani [2] | Binding of serum London to linear peptides of protein N of SARS-CoV Urbani [2] | Binding of serum London to looped/cyclic peptides of protein N of SARS-CoV Urbani [2] | Binding of serum SARS-green to linear peptides of protein N of SARS-CoV Urbani [2] | Binding of serum SARS-green to looped/cyclic peptides of protein N of SARS-CoV Urbani [2] | Binding of serum SARS-yellow to linear peptides of protein N of SARS-CoV Urbani [2] | Binding of serum SARS-yellow to looped/cyclic peptides of protein N of SARS-CoV Urbani [2] | also measured |
| --- | --- | --- | --- | --- | --- | --- | --- | --- | --- | --- | --- | --- | --- | --- | --- | --- | --- | --- | --- | --- | --- |
| DDFSRQLQNSMSGAS | 0.2 | 0.2 | 0.2 | 0.3 | 0.1 | 0.1 | 0.2 | 0.3 | 0.2 | 0.1 | 0.8 | 0.4 | 0.7 | 0.3 | 0.7 | 0.2 | 0.4 | 0.2 | 0.6 | 0.1 | Binding of a rabbit serum to linear peptides of protein N of SARS-CoV Urbani (Rabbit serum linear peptides) [3]: 0.5; Binding of a rabbit serum to looped/cyclic peptides of protein N of SARS-CoV Urbani (Rabbit serum looped peptides) [3]: 0.3; Control Serum Blood-Bank Looped peptides [4]: 0.3; Control serum Blood-bank linear peptides [4]: 0.8; Control serum LUMC linear peptides [4]: 0.6; Control serum LUMC looped peptides [4]: 0.3 |
| DEAQPLPQRQKKQPT | 0.1 | 0.2 | 0.2 | 0.2 | 0.2 | 0.1 | 0.3 | 0.2 | 0.3 | 0.1 | 0.8 | 0.3 | 0.7 | 0.2 | 1.5 | 0.3 | 0.6 | 0.0 | 1.6 | 0.2 | Binding of a rabbit serum to linear peptides of protein N of SARS-CoV Urbani (Rabbit serum linear peptides) [3]: 0.1; Binding of a rabbit serum to looped/cyclic peptides of protein N of SARS-CoV Urbani (Rabbit serum looped peptides) [3]: 0.0; Control Serum Blood-Bank Looped peptides [4]: 0.3; Control serum Blood-bank linear peptides [4]: 0.7; Control serum LUMC linear peptides [4]: 0.8; Control serum LUMC looped peptides [4]: 0.3 |
| DLIRQGTDYKHWPQI | 0.1 | 0.2 | 0.2 | 0.4 | 0.1 | 0.2 | 0.2 | 0.4 | 0.2 | 0.2 | 0.6 | 0.6 | 0.6 | 0.6 | 0.9 | 0.4 | 0.4 | 0.2 | 0.6 | 0.3 | Binding of a rabbit serum to linear peptides of protein N of SARS-CoV Urbani (Rabbit serum linear peptides) [3]: 0.0; Binding of a rabbit serum to looped/cyclic peptides of protein N of SARS-CoV Urbani (Rabbit serum looped peptides) [3]: 0.5; Binding of Control Serum Blood-Bank to Looped peptides [4]: 0.5; Binding of Control serum Blood-bank to linear peptides [4]: 0.6; Binding of Control serum LUMC to linear peptides [4]: 0.5; Binding of Control serum LUMC to looped peptides [4]: 0.5 |
